Measurements taken from US20120329787A1, “FUNGICIDAL PYRANONES AND OXAZINONES” (E.I. DU PONT DE NEMOURS AND COMPANY, priority 2011, published 2012).
Marks after values point to notes of the source that are not given here.

Legend:
Format in all cases: in vivo
Botrytis cinerea = assay: Test A: tomato Botrytis, spray on tomato seedlings the day before inoculation
Excerpt: General protocol for preparing test suspensions for Tests A-I: the test compounds were first dissolved in acetone in an amount equal to 3% of the final volume and then suspended at the desired concentration (in ppm) in acetone and purified water (50/50 mix by volume) containing 250 ppm of the surfactant Trem® 014 (polyhydric alcohol esters). The resulting test suspensions were then used in Tests A-I. Spraying a 200 ppm test suspension to the point of run-off on the test plants was the equivalent of a rate of 500 g/ha. […] (An asterisk “*” next to the rating value indicates a 40 ppm test suspension was used.) The test suspension was sprayed to the point of run-off on tomato seedlings. The following day, the seedlings were inoculated with a spore suspension of Botrytis cinerea (the causal agent of tomato Botrytis) and incubated in a saturated atmosphere at 20° C. for 48 h, and then moved to a growth chamber at 24° C. for 3 additional days, after which time visual disease ratings were made. […] A dash (-) indicates no test results. All results are for 200 ppm except where followed by an asterisk “*”, which indicates a 40 ppm.

Septoria tritici = assay: Test F: wheat leaf blotch, spray on wheat seedlings the day before inoculation
Excerpt: General protocol for preparing test suspensions for Tests A-I: the test compounds were first dissolved in acetone in an amount equal to 3% of the final volume and then suspended at the desired concentration (in ppm) in acetone and purified water (50/50 mix by volume) containing 250 ppm of the surfactant Trem® 014 (polyhydric alcohol esters). The resulting test suspensions were then used in Tests A-I. Spraying a 200 ppm test suspension to the point of run-off on the test plants was the equivalent of a rate of 500 g/ha. […] (An asterisk “*” next to the rating value indicates a 40 ppm test suspension was used.) The test suspension was sprayed to the point of run-off on wheat seedlings. The following day, the seedlings were inoculated with a spore suspension of Septoria tritici (the causal agent of wheat leaf blotch) and incubated in a saturated atmosphere at 24° C. for 48 h, and then the seedlings were moved to a growth chamber at 20° C. for 19 additional days, after which time visual disease ratings were made. […] A dash (-) indicates no test results. All results are for 200 ppm except where followed by an asterisk “*”, which indicates a 40 ppm.

Alternaria solani = assay: Test B: tomato early blight, spray on tomato seedlings the day before inoculation
Excerpt: General protocol for preparing test suspensions for Tests A-I: the test compounds were first dissolved in acetone in an amount equal to 3% of the final volume and then suspended at the desired concentration (in ppm) in acetone and purified water (50/50 mix by volume) containing 250 ppm of the surfactant Trem® 014 (polyhydric alcohol esters). The resulting test suspensions were then used in Tests A-I. Spraying a 200 ppm test suspension to the point of run-off on the test plants was the equivalent of a rate of 500 g/ha. […] (An asterisk “*” next to the rating value indicates a 40 ppm test suspension was used.) The test suspension was sprayed to the point of run-off on tomato seedlings. The following day, the seedlings were inoculated with a spore suspension of Alternaria solani (the causal agent of tomato early blight) and incubated in a saturated atmosphere at 27° C. for 48 h, and then moved to a growth chamber at 20° C. for 5 days, after which time visual disease ratings were made. […] A dash (-) indicates no test results. All results are for 200 ppm except where followed by an asterisk “*”, which indicates a 40 ppm.

[1] = tested on: Puccinia recondita f. sp. tritici; assay: Test G: wheat leaf rust, spray on wheat seedlings after inoculation (curative); settings: sprayed after inoculation
Excerpt: General protocol for preparing test suspensions for Tests A-I: the test compounds were first dissolved in acetone in an amount equal to 3% of the final volume and then suspended at the desired concentration (in ppm) in acetone and purified water (50/50 mix by volume) containing 250 ppm of the surfactant Trem® 014 (polyhydric alcohol esters). The resulting test suspensions were then used in Tests A-I. Spraying a 200 ppm test suspension to the point of run-off on the test plants was the equivalent of a rate of 500 g/ha. […] (An asterisk “*” next to the rating value indicates a 40 ppm test suspension was used.) Wheat seedlings were inoculated with a spore suspension of Puccinia recondita f. sp. tritici (the causal agent of wheat leaf rust) and incubated in a saturated atmosphere at 20° C. for 24 h, and then moved to a growth chamber at 20° C. for 2 days. At the end of this time, the test suspension was sprayed to the point of run-off, and then the seedlings were moved to a growth chamber at 20° C. for 4 days after which time visual disease ratings were made. […] A dash (-) indicates no test results. All results are for 200 ppm except where followed by an asterisk “*”, which indicates a 40 ppm.

Septoria nodorum = assay: Test E: Septoria glume blotch, spray on wheat seedlings the day before inoculation
Excerpt: General protocol for preparing test suspensions for Tests A-I: the test compounds were first dissolved in acetone in an amount equal to 3% of the final volume and then suspended at the desired concentration (in ppm) in acetone and purified water (50/50 mix by volume) containing 250 ppm of the surfactant Trem® 014 (polyhydric alcohol esters). The resulting test suspensions were then used in Tests A-I. Spraying a 200 ppm test suspension to the point of run-off on the test plants was the equivalent of a rate of 500 g/ha. […] (An asterisk “*” next to the rating value indicates a 40 ppm test suspension was used.) The test suspension was sprayed to the point of run-off on wheat seedlings. […] A dash (-) indicates no test results. All results are for 200 ppm except where followed by an asterisk “*”, which indicates a 40 ppm.

[2] = tested on: Erysiphe graminis f. sp. tritici; assay: Test I: wheat powdery mildew, spray on wheat seedlings the day before inoculation; settings: 200 ppm test suspension
Excerpt: General protocol for preparing test suspensions for Tests A-I: the test compounds were first dissolved in acetone in an amount equal to 3% of the final volume and then suspended at the desired concentration (in ppm) in acetone and purified water (50/50 mix by volume) containing 250 ppm of the surfactant Trem® 014 (polyhydric alcohol esters). The resulting test suspensions were then used in Tests A-I. Spraying a 200 ppm test suspension to the point of run-off on the test plants was the equivalent of a rate of 500 g/ha. […] (An asterisk “*” next to the rating value indicates a 40 ppm test suspension was used.) The test suspension was sprayed to the point of run-off on wheat seedlings. The following day, the seedlings were inoculated with a spore dust of Erysiphe graminis f. sp. tritici, (the causal agent of wheat powdery mildew) and incubated in a growth chamber at 20° C. for 7 days, after which time visual disease ratings were made. […] A dash (-) indicates no test results. All results are for 200 ppm except where followed by an asterisk “*”, which indicates a 40 ppm.

[3] = tested on: Puccinia recondita f. sp. tritici; assay: Test H: wheat leaf rust, spray on wheat seedlings the day before inoculation; settings: sprayed before inoculation
Excerpt: General protocol for preparing test suspensions for Tests A-I: the test compounds were first dissolved in acetone in an amount equal to 3% of the final volume and then suspended at the desired concentration (in ppm) in acetone and purified water (50/50 mix by volume) containing 250 ppm of the surfactant Trem® 014 (polyhydric alcohol esters). The resulting test suspensions were then used in Tests A-I. Spraying a 200 ppm test suspension to the point of run-off on the test plants was the equivalent of a rate of 500 g/ha. […] (An asterisk “*” next to the rating value indicates a 40 ppm test suspension was used.) The test suspension was sprayed to the point of run-off on wheat seedlings. The following day, the seedlings were inoculated with a spore suspension of Puccinia recondita f. sp. tritici (the causal agent of wheat leaf rust) and incubated in a saturated atmosphere at 20° C. for 24 h, and then moved to a growth chamber at 20° C. for 6 days, after which time visual disease ratings were made Results for Tests A-I are given in Table A. […] A dash (-) indicates no test results. All results are for 200 ppm except where followed by an asterisk “*”, which indicates a 40 ppm.

[4] = 40 ppm test suspension (asterisk)

Compound | Test A rating (100 = 100% disease control, 0 = no disease control) (Botrytis cinerea; [4]) | Test F rating (100 = 100% disease control, 0 = no disease control) (Septoria tritici; [4]) | Test B rating (100 = 100% disease control, 0 = no disease control) (Alternaria solani; [4]) | Test G rating (100 = 100% disease control, 0 = no disease control) [1, 4] | Test E rating (100 = 100% disease control, 0 = no disease control) (Septoria nodorum; [4]) | Test I rating (100 = 100% disease control, 0 = no disease control) [2] | Test H rating (100 = 100% disease control, 0 = no disease control) [3, 4] | Test A rating (100 = 100% disease control, 0 = no disease control) (Botrytis cinerea; 200 ppm test suspension) | Test F rating (100 = 100% disease control, 0 = no disease control) (Septoria tritici; 200 ppm test suspension) | Test B rating (100 = 100% disease control, 0 = no disease control) (Alternaria solani; 200 ppm test suspension) | Test G rating (100 = 100% disease control, 0 = no disease control) ([1]; 200 ppm test suspension) | Test E rating (100 = 100% disease control, 0 = no disease control) (Septoria nodorum; 200 ppm test suspension) | Test H rating (100 = 100% disease control, 0 = no disease control) ([3]; 200 ppm test suspension) | pest or weed control at 200 ppm (Botrytis cinerea; Botrytis cinerea, 120 h, 200 ppm test suspension, read-out: Test A rating (100 = 100% disease control, 0 = no disease control)) | pest or weed control at 200 ppm (Septoria tritici; Zymoseptoria tritici, 504 h, 200 ppm test suspension, read-out: Test F rating (100 = 100% disease control, 0 = no disease control)) | pest or weed control at 200 ppm (Alternaria solani; Alternaria solani, 168 h, 200 ppm test suspension, read-out: Test B rating (100 = 100% disease control, 0 = no disease control)) | pest or weed control at 200 ppm ([1]; Puccinia recondita, 96 h, 200 ppm test suspension, read-out: Test G rating (100 = 100% disease control, 0 = no disease control)) | pest or weed control at 200 ppm (Septoria nodorum; Parastagonospora nodorum, 264 h, 200 ppm test suspension, read-out: Test E rating (100 = 100% disease control, 0 = no disease control)) | pest or weed control at 200 ppm ([2]; Blumeria graminis, 168 h, read-out: Test I rating (100 = 100% disease control, 0 = no disease control)) | pest or weed control at 200 ppm ([3]; Puccinia recondita, 168 h, 200 ppm test suspension, read-out: Test H rating (100 = 100% disease control, 0 = no disease control))
Cc1oc(=O)c(-c2ccccc2F)c(-c2ccccc2Cl)c1-c1ccc(F)cc1F [Compound 35] | 100* % | 99* % | 68* % | 99* % | 0* % | 97% | 0* % |  |  |  |  |  |  |  |  |  |  |  |  | 
COc1cc(OC)cc(-c2cc(=O)oc(C)c2-c2ccc(F)cc2Cl)c1 [Compound 56] |  |  |  |  |  | 100% |  | 94% | 100% | 99% | 100% | 99% | 100% |  |  |  |  |  |  | 
COc1cc(OC)cc(-c2c(-c3ccccc3F)noc(=O)c2-c2c(F)cc(F)cc2F)c1 [Compound 23, 4-(3,5-dimethoxyphenyl)-3-(2-fluorophenyl)-5-(2,4,6-trifluorophenyl)-6H-1,2-oxazin-6-one] |  |  |  |  |  |  |  |  |  |  |  |  |  | 100% | 99% | 93% | 9% | 95% | 0% | 100%
COc1cc(OC)cc(-c2c(-c3ccc(F)cc3F)c(C)oc(=O)c2-c2ccccc2)c1 [Compound 27] |  |  |  |  |  | 82% |  | 98% | 99% | 100% | 93% | 99% | 100% |  |  |  |  |  |  | 
COc1cc(OC)cc(-c2c(-c3ccccc3F)c(C)oc(=O)c2-c2ccccc2)c1 [Compound 26] |  |  |  |  |  | 27% |  | 99% | 95% | 93% | 9% | 0% | 100% |  |  |  |  |  |  | 
COc1cccc(-c2c(-c3ccc(F)cc3F)c(C)oc(=O)c2-c2ccccc2)c1 [Compound 29] |  |  |  |  |  | 55% |  | 99% | 99% | 93% | 32% | 64% | 100% |  |  |  |  |  |  | 
COc1cc(OC)cc(-c2c(-c3ccc(F)cc3Cl)c(C)oc(=O)c2C)c1 [Compound 46] |  |  |  |  |  | 99% |  | 100% | 100% | 98% | 79% | 95% | 100% |  |  |  |  |  |  | 
4-(2-chloro-3,5-dimethoxyphenyl)-3,6-dimethyl-5-(2,4,6-trifluorophenyl)-2H-pyran-2-one [Compound 58] |  | 100* % |  |  |  | 100% |  | 100% |  | 100% | 100% | 100% | 100% |  |  |  |  |  |  | 
